Test results published in PubChem BioAssay AID256 (DTP/NCI, 2004).
Where “and” joins values, the source holds several entries; their conditions need not be identical. Identical values can stand only once. Toxic doses and inconclusive results are not listed.

System: CD2F1 mice, L1210 leukemia ip, survival T/C
Test: NCI In Vivo Anticancer Drug Screen. Data for tumor model L1210 Leukemia (intraperitoneal) in CD2F1 (CDF1) mice
Settings: higher = longer survival
Summary of the method: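 Antitumor effect is scored in animals hosting a serially transplanted tumor. Values compare compound-dosed animals against vehicle-only controls as a simple quotient.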

Structure (SMILES): O=NN(CCCl)C(=O)NC1CCCCC1
- T/C (endpoint: mean survival time, dose: 0.5 mg/kg/injection, schedule: Q03HX008 (oral), vehicle: saline): 214 % of control
- T/C (endpoint: mean survival time, dose: 0.5 mg/kg/injection, schedule: Q03HX024 (oral), vehicle: saline): 290 % of control
- T/C (endpoint: mean survival time, dose: 0.5 mg/kg/injection, schedule: Q03HX040 (oral), vehicle: saline): 200 % of control
- T/C (endpoint: mean survival time, dose: 1.0 mg/kg/injection, schedule: Q01DX001 (ip), vehicle: saline): 98 % of control
- T/C (endpoint: mean survival time, dose: 1.0 mg/kg/injection, schedule: Q01DX005 (ip), vehicle: saline): 113 % of control
- T/C (endpoint: mean survival time, dose: 1.0 mg/kg/injection, schedule: Q01DX009 (ip), vehicle: saline): 100 % of control
- T/C (endpoint: mean survival time, dose: 1.0 mg/kg/injection, schedule: Q03HX024 (oral), vehicle: saline): 194 % of control
- T/C (endpoint: mean survival time, dose: 1.0 mg/kg/injection, schedule: Q03HX040 (oral), vehicle: saline): 96 % of control
- T/C (endpoint: mean survival time, dose: 2.0 mg/kg/injection, schedule: Q03HX008 (oral), vehicle: saline): 338 % of control
- T/C (endpoint: mean survival time, dose: 4.0 mg/kg/injection, schedule: Q01DX001 (ip), vehicle: other): 109 % of control
- T/C (endpoint: mean survival time, dose: 4.0 mg/kg/injection, schedule: Q03HX024 (oral), vehicle: saline): 96 % of control
- T/C (endpoint: mean survival time, dose: 8.0 mg/kg/injection, schedule: Q01DX001 (ip), vehicle: saline): 108 % of control
- T/C (endpoint: mean survival time, dose: 8.0 mg/kg/injection, schedule: Q01DX001 (oral), vehicle: saline): 100 % of control
- T/C (endpoint: mean survival time, dose: 8.0 mg/kg/injection, schedule: Q01DX005 (ip), vehicle: saline): 267 % of control
- T/C (endpoint: mean survival time, dose: 8.0 mg/kg/injection, schedule: Q01DX009 (ip), vehicle: saline): 191 % of control
- T/C (endpoint: mean survival time, dose: 8.0 mg/kg/injection, schedule: Q03HX008 (ip), vehicle: saline): 108 % of control
- T/C (endpoint: mean survival time, dose: 8.0 mg/kg/injection, schedule: Q04DX003 (ip), vehicle: saline): 124 % of control
- T/C (endpoint: mean survival time, dose: 9.0 mg/kg/injection, schedule: Q01DX001 (ip), vehicle: carboxymethylcellulose (CMC)): 111 % of control
- T/C (endpoint: mean survival time, dose: 16.0 mg/kg/injection, schedule: Q01DX001 (ip), vehicle: other): 169 % of control
- T/C (endpoint: mean survival time, dose: 16.0 mg/kg/injection, schedule: Q01DX005 (ip), vehicle: saline): 393 % of control
- T/C (endpoint: mean survival time, dose: 16.0 mg/kg/injection, schedule: Q01DX009 (ip), vehicle: saline): 315 % of control
- T/C (endpoint: mean survival time, dose: 16.0 mg/kg/injection, schedule: Q03HX024 (ip), vehicle: saline): 210 % of control
- T/C (endpoint: mean survival time, dose: 16.0 mg/kg/injection, schedule: Q03HX040 (ip), vehicle: saline): 217 % of control
- T/C (endpoint: mean survival time, dose: 16.0 mg/kg/injection, schedule: Q04DX003 (ip), vehicle: saline + alcohol): 158 % of control and 425 % of control
- T/C (endpoint: mean survival time, dose: 16.0 mg/kg/injection, schedule: Q04DX003 (ip), vehicle: saline): 279 % of control
- T/C (endpoint: mean survival time, dose: 22.0 mg/kg/injection, schedule: Q01DX001 (ip), vehicle: carboxymethylcellulose (CMC)): 178 % of control
- T/C (endpoint: mean survival time, dose: 32.0 mg/kg/injection, schedule: Q01DX001 (ip), vehicle: other): 348 % of control
- T/C (endpoint: mean survival time, dose: 32.0 mg/kg/injection, schedule: Q01DX001 (ip), vehicle: saline): 157 % of control
- T/C (endpoint: mean survival time, dose: 32.0 mg/kg/injection, schedule: Q01DX001 (oral), vehicle: saline): 118 % of control
- T/C (endpoint: mean survival time, dose: 32.0 mg/kg/injection, schedule: Q01DX005 (ip), vehicle: saline): 393 % of control
- T/C (endpoint: mean survival time, dose: 32.0 mg/kg/injection, schedule: Q01DX005 (oral), vehicle: saline): 310 % of control
- T/C (endpoint: mean survival time, dose: 32.0 mg/kg/injection, schedule: Q01DX009 (ip), vehicle: saline): 224 % of control
- T/C (endpoint: mean survival time, dose: 32.0 mg/kg/injection, schedule: Q01DX009 (oral), vehicle: saline): 159 % of control
- T/C (endpoint: mean survival time, dose: 32.0 mg/kg/injection, schedule: Q03HX008 (ip), vehicle: saline): 191 % of control
- T/C (endpoint: mean survival time, dose: 32.0 mg/kg/injection, schedule: Q03HX024 (ip), vehicle: saline): 421 % of control
- T/C (endpoint: mean survival time, dose: 32.0 mg/kg/injection, schedule: Q03HX040 (ip), vehicle: saline): 432 % of control
- T/C (endpoint: mean survival time, dose: 32.0 mg/kg/injection, schedule: Q04DX003 (ip), vehicle: saline + alcohol): 515 % of control
- T/C (endpoint: mean survival time, dose: 32.0 mg/kg/injection, schedule: Q04DX003 (ip), vehicle: saline): 406 % of control
- T/C (endpoint: mean survival time, dose: 32.0 mg/kg/injection, schedule: Q04DX003 (oral), vehicle: saline): 267 % of control
- T/C (endpoint: mean survival time, dose: 33.0 mg/kg/injection, schedule: Q01DX001 (ip), vehicle: carboxymethylcellulose (CMC)): 208 % of control
- T/C (endpoint: mean survival time, dose: 48.0 mg/kg/injection, schedule: Q04DX003 (ip), vehicle: saline + alcohol): 82 % of control
- T/C (endpoint: mean survival time, dose: 50.0 mg/kg/injection, schedule: Q01DX001 (ip), vehicle: carboxymethylcellulose (CMC)): 352 % of control
- T/C (endpoint: mean survival time, dose: 64.0 mg/kg/injection, schedule: Q01DX001 (ip), vehicle: other): 208 % of control
- T/C (endpoint: mean survival time, dose: 64.0 mg/kg/injection, schedule: Q01DX001 (ip), vehicle: saline): 411 % of control
- T/C (endpoint: mean survival time, dose: 64.0 mg/kg/injection, schedule: Q01DX005 (ip), vehicle: saline): 98 % of control
- T/C (endpoint: mean survival time, dose: 64.0 mg/kg/injection, schedule: Q01DX005 (oral), vehicle: saline): 107 % of control
- T/C (endpoint: mean survival time, dose: 64.0 mg/kg/injection, schedule: Q01DX009 (ip), vehicle: saline): 120 % of control
- T/C (endpoint: mean survival time, dose: 64.0 mg/kg/injection, schedule: Q01DX009 (oral), vehicle: saline): 95 % of control
- T/C (endpoint: mean survival time, dose: 64.0 mg/kg/injection, schedule: Q03HX008 (ip), vehicle: saline): 437 % of control
- T/C (endpoint: mean survival time, dose: 64.0 mg/kg/injection, schedule: Q03HX024 (ip), vehicle: saline): 330 % of control
- T/C (endpoint: mean survival time, dose: 64.0 mg/kg/injection, schedule: Q03HX040 (ip), vehicle: saline): 259 % of control
- T/C (endpoint: mean survival time, dose: 64.0 mg/kg/injection, schedule: Q04DX003 (ip), vehicle: saline): 209 % of control
- T/C (endpoint: mean survival time, dose: 75.0 mg/kg/injection, schedule: Q01DX001 (ip), vehicle: carboxymethylcellulose (CMC)): 332 % of control
- T/C (endpoint: mean survival time, dose: 128.0 mg/kg/injection, schedule: Q01DX001 (ip), vehicle: saline): 198 % of control
- T/C (endpoint: mean survival time, dose: 128.0 mg/kg/injection, schedule: Q01DX001 (oral), vehicle: saline): 330 % of control
- T/C (endpoint: mean survival time, dose: 128.0 mg/kg/injection, schedule: Q03HX008 (ip), vehicle: saline): 437 % of control
- T/C (endpoint: mean survival time, dose: 128.0 mg/kg/injection, schedule: Q03HX040 (ip), vehicle: saline): 86 % of control
- T/C (endpoint: mean survival time, dose: 128.0 mg/kg/injection, schedule: Q04DX003 (oral), vehicle: saline): 110 % of control
- T/C (endpoint: mean survival time, dose: 256.0 mg/kg/injection, schedule: Q04DX003 (oral), vehicle: saline): 86 % of control
- T/C (endpoint: median survival time, dose: 1.0 mg/kg/injection, schedule: Q01DX009 (ip), vehicle: Klucel (hydroxypropylcellulose) (HPC)): 113 % of control and 106 % of control
- T/C (endpoint: median survival time, dose: 2.0 mg/kg/injection, schedule: Q01DX009 (ip), vehicle: Klucel (hydroxypropylcellulose) (HPC)): 113 % of control
- T/C (endpoint: median survival time, dose: 4.0 mg/kg/injection, schedule: Q04DX003 (ip), vehicle: saline + alcohol): 105 % of control
- T/C (endpoint: median survival time, dose: 8.0 mg/kg/injection, schedule: Q04DX003 (ip), vehicle: saline + alcohol): 98 % of control
- T/C (endpoint: median survival time, dose: 8.4 mg/kg/injection, schedule: Q01DX001 (ip), vehicle: distilled water + Tween-80 + alcohol): 94 % of control
- T/C (endpoint: median survival time, dose: 14.0 mg/kg/injection, schedule: Q01DX001 (ip), vehicle: distilled water + Tween-80 + alcohol): 100 % of control
- T/C (endpoint: median survival time, dose: 14.0 mg/kg/injection, schedule: Q07DX003 (ip), vehicle: saline + alcohol): 157 % of control
- T/C (endpoint: median survival time, dose: 16.0 mg/kg/injection, schedule: Q04DX003 (ip), vehicle: saline + alcohol): 109 % of control
- T/C (endpoint: median survival time, dose: 20.0 mg/kg/injection, schedule: Q07DX003 (ip), vehicle: saline + alcohol): 584 % of control
- T/C (endpoint: median survival time, dose: 26.0 mg/kg/injection, schedule: Q07DX003 (ip), vehicle: saline + alcohol): 669 % of control
- T/C (endpoint: median survival time, dose: 27.0 mg/kg/injection, schedule: Q01DX001 (ip), vehicle: carboxymethylcellulose (CMC)): 184 % of control
- T/C (endpoint: median survival time, dose: 32.0 mg/kg/injection, schedule: Q04DX003 (ip), vehicle: saline + alcohol): 438 % of control
- T/C (endpoint: median survival time, dose: 33.0 mg/kg/injection, schedule: Q07DX003 (ip), vehicle: saline + alcohol): 671 % of control
- T/C (endpoint: median survival time, dose: 40.0 mg/kg/injection, schedule: Q01DX001 (ip), vehicle: carboxymethylcellulose (CMC)): 722 % of control
- T/C (endpoint: median survival time, dose: 40.0 mg/kg/injection, schedule: Q01DX001 (ip), vehicle: distilled water + Tween-80 + alcohol): 154 % of control
- T/C (endpoint: median survival time, dose: 64.0 mg/kg/injection, schedule: Q01DX009 (ip), vehicle: Klucel (hydroxypropylcellulose) (HPC)): 96 % of control and 109 % of control
